Experimental data from US20150320738A1, “BERBERINE-CONTAINING PHARMACEUTICAL COMPOSITION FOR INHIBITING CANCER STEM CELL GROWTH OR CARCINOMA METASTASIS AND APPLICATION THEREOF” (National Taiwan Normal University, priority 2011, published 2015).

Experiments:
Format in all cases: cell-based
NCI-H460 cell line = experiment: MTT cell proliferation assay, NCI-H460; settings: Homo sapiens, 48 hours, read-out: half maximal inhibitory concentration (IC50)
Experimental: (§1) NSCLC cell lines A549, NCI-H460, NCI-H520 and normal lung cell line MRC5 were obtained from Bioresource Collection and Research Center (BCRC, Taiwan). A549 cell line was cultured with F12K medium (21127, GIBCO, Carlsbad, U.S.A.). Both NCI-H460 and NCI-H520 cell lines were cultured with RPMI1640 medium (23400, GIBCO, Carlsbad, U.S.A.). MRC5 cell line was culture with MEM medium (41500, GIBCO, Carlsbad, U.S.A.). All media mentioned above contained 10% FBS (10437, GIBCO, Carlsbad, U.S.A.). All cultures were maintained in an incubator (Thermo forma 370, Waltham, U.S.A.) with 5% CO2 at 37° C. Cells were seeded at 1×10^4 cells per well in a 24-well plate for 16 hours. After that, a sample such as the berberine solutions with different concentrations and the extract of C. chinensis was added into 24-well plate directly, and cultured at 37° C. for 24, 48, and 72 hours, respectively. Thiazolyl blue tetrazolium bromide (MTT, m5655, Sigma, St. Louis, U.S.A.) solution was prepared in a concentration of 5.5 mg/ml with phosphate buffered saline (PBS) filtered by 0.22 μm membrane. The MTT solution (50 μl) was added to the wells of 24-well plates with A549, NCI-H460, NCI-H520, and MRC5 cell lines cultured after 24, 48, and 72 hours. The plates were incubated at 37° C. for 2 hours and then moved out. The media of the wells were removed. […]

NCI-H520 cell line = experiment: MTT cell proliferation assay, NCI-H520; settings: Homo sapiens, 48 hours, read-out: half maximal inhibitory concentration (IC50)
Experimental: as §1

A549 cell line = experiment: MTT cell proliferation assay, A549; settings: Homo sapiens, 48 hours, read-out: half maximal inhibitory concentration (IC50)
Experimental: as §1

A549 cells = experiment: Side population analysis (Hoechst33342, flow cytometry); settings: A549, dose of IC50, 48 hours
Experimental: A549 cells were seeded in the number of about 3×10^5 in 10 cm dish to give adequate number of cells for analysis. The cells were treated with the extract of C. chinensis and the berberine solution in the dose of IC50 for 48 hours. Then, the treated cells were harvested by typsinization and centrifugation. The harvested cells were re-suspended in the number of 1×10^6 cells/ml in culture medium containing 2% FBS. Hoechst33342 dye (5 μg/ml, Invitrogen, Carlsbad, U.S.A.) was added with or without reserpine (50 μM, Sigma, St. Louis, U.S.A.) as a blocking reagent. The cells were further incubated at 37° C. for 2 hours under frequently gentle vortex to ensure uniform staining, and then washed cells with PBS. PI staining (20 ng/ml) was used to determine the live/dead cells. In order to set up the fluorescence compensation, single staining and non-staining groups were prepared. The cell samples were filtered with nylon mesh (35 μm) to prevent cell aggregation. PI-positive dead cells were primary excluded to avoid false positive signals. Then, the Hoechst blue and red dot plotting was used to determine the side population. A gate of a side population was defined by the diminishing region of two samples groups, i.e. with or without reserpine. The percentages of the side population were further analyzed by Flowjo software (TreeStar, Ashland, U.S.A.).

IC50 (NCI-H460 cell line): ~40 µM
IC50 (NCI-H520 cell line): ~20 µM
IC50 (A549 cell line): ~7 µM
SMILES: COc1ccc2cc3[n+](cc2c1OC)CCc1cc2c(cc1-3)OCO2 [berberine solution, berberine chloride]
side population (SP) (A549 cells): considerably diminished
